Test results reported in patent publication US11400138B2, “Method for improving skin condition with bioactive compound” (TCI CO., LTD., priority 2020, dated 2022).

Assays:
Format in all cases: cell-based
Conditions in all cases: 12.5 μg synthesized peptide per 1 mL cell culture medium, 24 h, 37° C.
[1] = test system: TIMP1 gene; experiment: TIMP1 gene expression in human fibroblasts (CCD-966SK), qPCR
Protocol: (§1) In order to confirm the effect of each of the amino acid sequences on gene expression in cells, human fibroblasts (CCD-966SK) and individual peptides were co-cultured, and then, gene expression in the cells was analyzed. 11 types of synthesized peptides were respectively subjected to cell experiments. In addition, the amino acid sequences of 11 types of synthesized peptides were respectively SEQ ID NO: 1, SEQ ID NO: 2, SEQ ID NO: 3, SEQ ID NO: 4, SEQ ID NO: 5, SEQ ID NO: 6, SEQ ID NO: 7, SEQ ID NO: 8, SEQ ID NO: 9, SEQ ID NO: 10 and SEQ ID NO: 11. Hereafter, the sequence numbers SEQ ID NO: 1 to SEQ ID NO: 11 will be referred to as groups.
(§2) Cell gene expression test refers to that after the human fibroblasts (purchased from Food Industry Research and Development Institute) and samples to be tested (such as peptides or compositions) were co-cultured, then, RNA in the cells was collected for analysis. Referring to Table 3, the gene expression test groups were divided into 13 groups. 11 groups therein were peptide experiment groups (Experiment group A to Experiment group K), 1 group was a composition experiment group (Experiment group L), and 1 group was a control group. In addition, each group was co-cultured with 1×10^5 human fibroblasts in a cell culture plate containing 2 mL of cell culture medium (X-VIVO™ 10). Experiment group A to Experiment group K respectively corresponded to 11 groups of peptide experiment groups of 11 types of synthesized peptides (SEQ ID NO: 1, SEQ ID NO: 2, SEQ ID NO: 3, SEQ ID NO: 4, SEQ ID NO: 5, SEQ ID NO: 6, SEQ ID NO: 7, SEQ ID NO: 8, SEQ ID NO: 9, SEQ ID NO: 10 and SEQ ID NO: 11) prepared according to Example III. Experiment group L was a composition experiment group added with the composition. In addition, the composition was identified in Example II to be tilapia fish skin collagen peptide powder (purchased from LAPI, Italy) including […] of peptides (i.e., SEQ ID NO: 1, SEQ ID NO: 2, SEQ ID NO: 3, SEQ ID NO: 4, SEQ ID NO: 5 and SEQ ID NO: 6). No peptide or composition was added in Control group.
For each group of peptide experiment groups (corresponding to Experiment group A to Experiment group K), according to a proportion of 12.5 μg of synthesized peptide per 1 mL of cell culture medium, the human fibroblasts were cultured for 24 h at 37° C. For the composition experiment group (corresponding to Experiment group L), according to a proportion of 100 mg of composition per 1 mL of cell culture medium, the human fibroblasts were cultured for 24 h. For Control group, no peptide was added, and the human fibroblasts were cultured for 24 h in a pure cell culture medium. In addition, after culture for 24 h, the peptide-containing cell culture medium or the pure culture medium was removed from each group, and cells in each group were washed by a phosphate buffer solution (PBS) so as to remove the residual culture medium. […] In addition, the primers firstly reacted by a green fluorescent dye of SYBR green dye (Applied Biosystem), and quantification of gene expression was performed by a 2-ΔΔCt method. It should be noted that the gene expression in the drawings corresponding to the experiments was shown in relative fold or percentage, wherein standard deviations were calculated by an STDEV formula of Excel software, and statistically significant differences were analyzed by one-tailed student t-test in the Excel software. […]

[2] = test system: FBN1 gene; experiment: FBN1 gene expression in human fibroblasts (CCD-966SK), qPCR
Protocol: as §1, §2
For each group of peptide experiment groups (corresponding to Experiment group A to Experiment group K), according to a proportion of 12.5 μg of synthesized peptide per 1 mL of cell culture medium, the human fibroblasts were cultured for 24 h at 37° C. For the composition experiment group (corresponding to Experiment group L), according to a proportion of 100 mg of composition per 1 mL of cell culture medium, the human fibroblasts were cultured for 24 h. For Control group, no peptide was added, and the human fibroblasts were cultured for 24 h in a pure cell culture medium. In addition, after culture for 24 h, the peptide-containing cell culture medium or the pure culture medium was removed from each group, and cells in each group were washed by a phosphate buffer solution (PBS) so as to remove the residual culture medium. The washed cells were spun down and were subjected to cell lysis by a cell lysis solution (purchased from Geneaid company, Taiwan). Then, RNA in each group of cells was extracted by an RNA extraction kit (purchased from Geneaid company, Taiwan). Next, the extracted RNA was subjected to inverse transcription to obtain cDNA by a cDNA synthesis reagent (purchased from Geneaid company, Taiwan). In addition, the intracellular gene expression was observed by a polymerase chain reaction (PCR) instrument using different primers (as shown in Table 3). In addition, the primers firstly reacted by a green fluorescent dye of SYBR green dye (Applied Biosystem), and quantification of gene expression was performed by a 2-ΔΔCt method. It should be noted that the gene expression in the drawings corresponding to the experiments was shown in relative fold or percentage, wherein standard deviations were calculated by an STDEV formula of Excel software, and statistically significant differences were analyzed by one-tailed student t-test in the Excel software. […]

[3] = test system: LOX gene; experiment: LOX gene expression in human fibroblasts (CCD-966SK), qPCR
Protocol: as §1
as §2, with “No peptide or composition was added in Control group.” left out
(§3) For each group of peptide experiment groups (corresponding to Experiment group A to Experiment group K), according to a proportion of 12.5 μg of synthesized peptide per 1 mL of cell culture medium, the human fibroblasts were cultured for 24 h at 37° C. […] In addition, the primers firstly reacted by a green fluorescent dye of SYBR green dye (Applied Biosystem), and quantification of gene expression was performed by a 2-ΔΔCt method. It should be noted that the gene expression in the drawings corresponding to the experiments was shown in relative fold or percentage, wherein standard deviations were calculated by an STDEV formula of Excel software, and statistically significant differences were analyzed by one-tailed student t-test in the Excel software. […]

[4] = test system: MMP2 gene; experiment: MMP2 gene expression in human fibroblasts (CCD-966SK), qPCR
Protocol: as §1, with “groups. […]” for “groups.”
as §3

Row | Substance | TIMP1 gene expression level, folds of Control group [1] | FBN1 gene expression level, folds of Control group [2] | LOX gene expression level, folds of Control group [3] | MMP2 gene expression inhibition [4] | MMP2 gene expression percentage (Control group regarded as 100%) [4]
1 | ALVQNREGP (listed as Oreochromis mossambicus) [SEQ ID NO: 6, synthesized peptide of tilapia skin, Collagen, type VII] | about 3 folds | about 5 folds | – | – | –
2 | AVNGLTLAGGRGLNTGAALT (listed as Oreochromis mossambicus) [SEQ ID NO: 5, synthesized peptide of tilapia skin, Collagen, type VI] | – | about 6 folds | about 2.5 folds | – | –
3 | DQGIRLL (listed as Oreochromis mossambicus) [SEQ ID NO: 10, synthesized peptide of Plectin b] | – | about 6 folds | – | – | –
4 | GLPGVQGNI (listed as Oreochromis mossambicus) [SEQ ID NO: 2, synthesized peptide of tilapia skin, Collagen, type IV] | about 7.8 folds | about 6 folds | about 5.7 folds | – | –
5 | IGIFGQTGPPGE (listed as Oreochromis mossambicus) [SEQ ID NO: 3, synthesized peptide of tilapia skin, Collagen, type IV] | – | about 3 folds | – | about 60% | about 40%
6 | MFGKDVW (listed as Oreochromis mossambicus) [SEQ ID NO: 9, synthesized peptide of N-acetylglucosamine-1-phosphotransferase subunits alpha/beta] | about 3 folds | about 4 folds | about 2.5 folds | – | –
7 | NGLPGSPGLP GRQGE (NGLPGSPGLPGRQGE; listed as Oreochromis mossambicus) [SEQ ID NO: 7, synthesized peptide of tilapia skin, Collagen, type XII] | – | about 5 folds | – | – | –
8 | PGPMGPMGINGA (listed as Oreochromis mossambicus) [SEQ ID NO: 4, synthesized peptide of tilapia skin, Collagen, type V] | – | about 16 folds | – | – | –
9 | PGQPGLSGVPGADGKPGLPGP (listed as Oreochromis mossambicus) [SEQ ID NO: 8, synthesized peptide of tilapia skin, Collagen, type XVIII] | about 5 folds | about 9 folds | – | – | –
10 | QRGEPGPNGAV (listed as Oreochromis mossambicus) [SEQ ID NO: 11, synthesized peptide of tilapia skin, Procollagen, type I] | about 5 folds | about 5 folds | about 3 folds | – | –
